Numbered stars: 1 amine (or outer) side, 2 acyl side, 3 side chain; on linkers, the order of the positions; unused ones are H or OH. Bridge positions count the residues as written; N and C are the ends. Square brackets hold non-standard residues; d marks the D form. Peptide text beside a SMILES is read from it. * marks the point of attachment. hPhe(3,5-F2-4-CF3) = N[C@@H](CCc1cc(F)c(C(F)(F)F)c(F)c1)C(=O)O; hPhe(3-Cl-4-CF3) = N[C@@H](CCc1ccc(C(F)(F)F)c(Cl)c1)C(=O)O; NMePhe(4-CF3) = CN[C@@H](Cc1ccc(C(F)(F)F)cc1)C(=O)O; hPhe(4-CF3) = N[C@@H](CCc1ccc(C(F)(F)F)cc1)C(=O)O; NMeAbu(4,4,4-F3) = CN[C@@H](CC(F)(F)F)C(=O)O; NMePhe(4-Cl) = CN[C@@H](Cc1ccc(Cl)cc1)C(=O)O; NMePhe(4-Me) = CN[C@@H](Cc1ccc(C)cc1)C(=O)O; NMedβ3hAla = C[C@H](CC(=O)[*:2])N(C)[*:1]; NMeGly(cPent) = CN[C@H](C(=O)O)C1CCCC1; NMeCha = CN[C@@H](CC1CCCCC1)C(=O)O; Hyp = O=C(O)[C@@H]1C[C@@H](O)CN1; NMeAhp(2) = CCCCC[C@H](NC)C(=O)O; NMeChg = CN[C@H](C(=O)O)C1CCCCC1; NMeI = CC[C@H](C)[C@H](NC)C(=O)O; Cha = N[C@@H](CC1CCCCC1)C(=O)O; NMeD = CN[C@@H](CC(=O)O)C(=O)O; NMeL = CN[C@@H](CC(C)C)C(=O)O; NMeV = CN[C@H](C(=O)O)C(C)C; Trifluoroethyl = FC(F)(F)C*; d(β3hA) = C[C@@H](N)CC(=O)O; NMeS = CN[C@@H](CO)C(=O)O; Morpholide = C1CN(*)CCO1; NMeA = CN[C@@H](C)C(=O)O; NMeAib = CNC(C)(C)C(=O)O; Piperidide = C1CCN(*)CC1; Pyrrolidide = C1CCN(*)C1; dNMeA = CN[C@H](C)C(=O)O; Ac5c = NC1(C(=O)O)CCCC1; Aze = O=C(O)[C@@H]1CCN1; Alloc = C=CCOC(=O)*; Sar = CNCC(=O)O

The target of test [1] is protein-protein interaction between Kras and SOS1 (biotin-tagged human Kras loaded with GDP, His-tagged human SOS1) (Homo sapiens (Human), UniProt P01116, G12D). Nature of the test: Protein-protein interaction inhibition between Kras and SOS1 (KrasG12D-SOS PPI) using AlphaScreen.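 Note: kras produced in E. coli, Ni-coupled donor beads and streptavidin acceptor beads, excitation 680 nm with emission detected at 520–620 nm via singlet oxygen transfer.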 Format: biochemical. The note with it: AlphaScreen; biotin-tagged human Kras loaded with GDP, His-tagged human SOS1; read-out: KRAS G12D-SOS PPI IC50. Background: Bead proximity is the source of the signal in Alpha formats.

The test system of test [2] is Human pancreatic cancer cell line AsPC-1 (G12D mutation Kras). Nature of the test: AsPC-1 cell growth inhibition (AsPC-1 CGI). Format: cell-based. The note with it: read-out: AsPC-1 cell growth inhibition, 50% growth inhibitory concentration (IC50 value); 96 hours, CellTiter-Glo, values classified in ranges. Background: In ATP-based viability assays light output follows the ATP content of the culture.
Method: Test compounds were serially dilated with dimethyl sulfoxide, and 200 nL was then dispensed to a U-bottom 96-well plate using Labcyte Echo. […] The cell suspension was dispensed to a. plate containing a test compound at 100 μL per well and incubated at 37° C. in a 5% carbon dioxide gas incubator. 96 hours later, 80 μL of CellTiter-Glo (Promega) was added to each well and fluorescence was measured.

For the compound `CCCCC[C@H]1C(=O)N[C@@H]([C@@H](C)CC)C(=O)N[C@@H](C)C(=O)N2CC[C@H]2C(=O)N(C)[C@@H](Cc2ccc(C(F)(F)F)cc2)C(=O)N(C)CC(=O)N[C@@H](CCc2ccc(C(F)(F)F)c(Cl)c2)C(=O)N2CCC[C@H]2C(=O)NC2(CCCC2)C(=O)N(C)[C@@H]([C@@H](C)CC)C(=O)N(C)[C@H](C(=O)N2CCCC2)CC(=O)N1C` [Compound 209] ([NMeAhp(2)]IA[Aze][NMePhe(4-CF3)][Sar][hPhe(3-Cl-4-CF3)]P[Ac5c][NMeI][NMeD]-Pyrrolidide; lactam N-11), the results for the IC50 in test [1] and in test [2] were 1.6 nM and no more than 20 nM, respectively.
As for `CC[C@H](C)[C@@H]1NC(=O)[C@H](CO)N(C)C(=O)C[C@@H](C(=O)N2CCCCC2)N(C)C(=O)[C@H](C(C)C)N(C)C(=O)C2(CCCC2)NC(=O)[C@@H]2CCCN2C(=O)[C@H](CCc2ccc(C(F)(F)F)c(Cl)c2)NC(=O)CN(C)C(=O)[C@H](CC2CCCCC2)N(C)C(=O)[C@@H]2CCN2C(=O)[C@H](C)N(C)C1=O` [Compound 1837] ([NMeS]I[NMeA][Aze][NMeCha][Sar][hPhe(3-Cl-4-CF3)]P[Ac5c][NMeV][NMeD]-Piperidide; lactam N-11), the IC50 in test [1] was 2 nM; in test [2], greater than 500 nM.
As to `CC(C)C[C@H]1C(=O)N[C@@H](CC2CCCCC2)C(=O)N(C)CC(=O)N(C)CC(=O)N(C)[C@@H](CC2CCCCC2)C(=O)N(C)CC(=O)N[C@@H](CCc2ccc(C(F)(F)F)c(Cl)c2)C(=O)N2CCC[C@H]2C(=O)NC2(CCCC2)C(=O)N(C)[C@@H](C2CCCCC2)C(=O)N(C)[C@H](C(=O)N2CCCCC2)CC(=O)N1C` [Compound 1] ([NMeL][Cha][Sar][Sar][NMeCha][Sar][hPhe(3-Cl-4-CF3)]P[Ac5c][NMeChg][NMeD]-Piperidide; lactam N-11), the IC50 in test [1] was 5.9 nM; in test [2] it was greater than 500 nM.
With `CC[C@H](C)[C@@H]1NC(=O)[C@H](C)N(C)C(=O)C[C@@H](C)NC(=O)[C@H](C2CCCC2)N(C)C(=O)C2(CCCC2)NC(=O)[C@@H]2CCCN2C(=O)[C@H](CCc2ccc(C(F)(F)F)c(Cl)c2)NC(=O)[C@@H](C)N(C)C(=O)[C@H](Cc2ccc(C)cc2)N(C)C(=O)[C@@H]2CCN2C(=O)[C@H](C)N(C)C1=O` [Compound 1536] (cyclo([Ac5c][NMeGly(cPent)][d(β3hA)][NMeA]I[NMeA][Aze][NMePhe(4-Me)][dNMeA][hPhe(3-Cl-4-CF3)]P)), the IC50 in test [1] is 21 nM; in test [2], greater than 500 nM.
On to `C=CCOC(=O)NCCCC[C@@H]1NC(=O)[C@H](CCc2ccc(C(F)(F)F)cc2)NC(=O)CN(C)C(=O)[C@H](Cc2ccc(Cl)cc2)N(C)C(=O)CN(C)C(=O)CN(C)C(=O)[C@H]([C@@H](C)CC)NC(=O)[C@H](CC(C)C)N(C)C(=O)C[C@@H](C)N(C)C(=O)[C@H](CC(C)C)NC(=O)C(C)(C)N(C)C1=O` [Compound 12] (cyclo(I[Sar][Sar][NMePhe(4-Cl)][Sar][hPhe(4-CF3)]K(Alloc)[NMeAib]L[NMedβ3hAla][NMeL])), for which the values for the IC50 in test [1] and in test [2] were 240 nM and greater than 500 nM, respectively.
For `CCO[C@@H]1C[C@H]2C(=O)NC3(CCCC3)C(=O)N(C)[C@@H](C3CCCCC3)C(=O)N(C)[C@H](C(=O)N3CCOCC3)CC(=O)N(C)[C@@H](CC(F)(F)F)C(=O)N[C@@H]([C@@H](C)CC)C(=O)N(C)CC(=O)N(C)CC(=O)N(C)[C@@H](Cc3ccc(C(F)(F)F)cc3)C(=O)N(C)CC(=O)N[C@@H](CCc3ccc(C(F)(F)F)c(Cl)c3)C(=O)N2C1` [Compound 1206] ([NMeAbu(4,4,4-F3)]I[Sar][Sar][NMePhe(4-CF3)][Sar][hPhe(3-Cl-4-CF3)][Hyp](Et)[Ac5c][NMeChg][NMeD]-Morpholide; lactam N-11), the IC50 was 0.57 nM in test [1] and no more than 20 nM in test [2].
On to `CC(C)C[C@H]1C(=O)N[C@@H](COCC(F)(F)F)C(=O)N(C)[C@@H](C)C(=O)N2CC[C@H]2C(=O)N(C)[C@@H](CC2CCCCC2)C(=O)N(C)CC(=O)N[C@@H](CCc2ccc(C(F)(F)F)c(Cl)c2)C(=O)N2CCC[C@H]2C(=O)NC2(CCCC2)C(=O)N(C)[C@@H](C(C)C)C(=O)N(C)[C@H](C(=O)N2CCCCC2)CC(=O)N1C` [Compound 304] ([NMeL]S(Trifluoroethyl)[NMeA][Aze][NMeCha][Sar][hPhe(3-Cl-4-CF3)]P[Ac5c][NMeV][NMeD]-Piperidide; lactam N-11), for which the IC50 is 87 nM in test [1] and greater than 500 nM in test [2].
With `CCO[C@@H]1C[C@H]2C(=O)NC3(CCCC3)C(=O)N(C)[C@@H](C3CCCCC3)C(=O)N(C)[C@H](C(=O)N3CCCC3)CC(=O)N(C)[C@@H](CC(F)(F)F)C(=O)N[C@@H]([C@@H](C)CC)C(=O)N(C)CC(=O)N(C)CC(=O)N(C)[C@@H](Cc3ccc(C(F)(F)F)cc3)C(=O)N(C)CC(=O)N[C@@H](CCc3cc(F)c(C(F)(F)F)c(F)c3)C(=O)N2C1` [Compound 1271] ([NMeAbu(4,4,4-F3)]I[Sar][Sar][NMePhe(4-CF3)][Sar][hPhe(3,5-F2-4-CF3)][Hyp](Et)[Ac5c][NMeChg][NMeD]-Pyrrolidide; lactam N-11), the IC50 is 0.49 nM in test [1] and no more than 20 nM in test [2].

These data come from patent US20240148821A1, “PHARMACEUTICAL USE OF CYCLIC PEPTIDE COMPOUND” (CHUGAI SEIYAKU KABUSHIKI KAISHA, priority 2021, published 2024).
